Test results as given in BigSolDB 2.1.

Which solubility (mole fraction) (in acetone, 298.15 K) does the source give for `Oc1cc(O)c2cc(O)c(-c3cc(O)c(O)c(O)c3)[o+]c2c1.[Cl-]` here?
The solubility (mole fraction) was 5.5e-11.

And the solubility (mole fraction) (in acetone, 303.15 K)?
The solubility (mole fraction) was 6.6e-11.

What about the solubility (mole fraction) (in acetone, 308.15 K) of the same molecule?
The solubility (mole fraction) was 7.1e-11.

And the solubility (mole fraction) (in acetone, 313.15 K)?
The solubility (mole fraction) was 7.7e-11.

What about the solubility (mole fraction) (in acetone, 318.15 K) of the same molecule?
The solubility (mole fraction) was 8.7e-11.

What about the solubility (mole fraction) (in acetone, 323.15 K) of the same molecule?
The solubility (mole fraction) was 9.8e-11.

And the solubility (mole fraction) (in acetone, 328.15 K)?
Its solubility (mole fraction) is 1.06e-10.

What about the solubility (mole fraction) (in acetone, 333.15 K) of the same molecule?
The solubility (mole fraction) was 1.24e-10.

What about the solubility (mole fraction) (in acetone, 338.15 K) of the same molecule?
Its solubility (mole fraction) is 1.35e-10.

And the solubility (mole fraction) (in acetone, 343.15 K)?
Its solubility (mole fraction) is 1.57e-10.

What about the solubility (mole fraction) (in ethanol, 298.15 K) of the same molecule?
The solubility (mole fraction) was 5.73e-08.

What about the solubility (mole fraction) (in ethanol, 303.15 K) of the same molecule?
The solubility (mole fraction) was 6.13e-08.

What about the solubility (mole fraction) (in ethanol, 308.15 K) of the same molecule?
The solubility (mole fraction) was 7.04e-08.

What about the solubility (mole fraction) (in ethanol, 313.15 K) of the same molecule?
Its solubility (mole fraction) is 7.7e-08.

And the solubility (mole fraction) (in ethanol, 318.15 K)?
Its solubility (mole fraction) is 8.59e-08.

What about the solubility (mole fraction) (in ethanol, 323.15 K) of the same molecule?
Its solubility (mole fraction) is 9.8e-08.

What about the solubility (mole fraction) (in ethanol, 328.15 K) of the same molecule?
The solubility (mole fraction) was 1.06e-07.

And the solubility (mole fraction) (in ethanol, 333.15 K)?
Its solubility (mole fraction) is 1.23e-07.

What about the solubility (mole fraction) (in ethanol, 338.15 K) of the same molecule?
The solubility (mole fraction) was 1.37e-07.

What about the solubility (mole fraction) (in ethanol, 343.15 K) of the same molecule?
Its solubility (mole fraction) is 1.56e-07.

What about the solubility (mole fraction) (in methanol, 298.15 K) of the same molecule?
Its solubility (mole fraction) is 5.86e-07.

And the solubility (mole fraction) (in methanol, 303.15 K)?
Its solubility (mole fraction) is 6.62e-07.

And the solubility (mole fraction) (in methanol, 308.15 K)?
Its solubility (mole fraction) is 7.71e-07.

What about the solubility (mole fraction) (in methanol, 313.15 K) of the same molecule?
Its solubility (mole fraction) is 8.77e-07.

And the solubility (mole fraction) (in methanol, 318.15 K)?
Its solubility (mole fraction) is 9.71e-07.

What about the solubility (mole fraction) (in methanol, 323.15 K) of the same molecule?
The solubility (mole fraction) was 1.05e-06.

And the solubility (mole fraction) (in methanol, 328.15 K)?
Its solubility (mole fraction) is 1.26e-06.

What about the solubility (mole fraction) (in methanol, 333.15 K) of the same molecule?
The solubility (mole fraction) was 1.4e-06.

And the solubility (mole fraction) (in methanol, 338.15 K)?
Its solubility (mole fraction) is 1.53e-06.

And the solubility (mole fraction) (in methanol, 343.15 K)?
The solubility (mole fraction) was 1.69e-06.

And the solubility (mole fraction) (in water, 298.15 K)?
The solubility (mole fraction) was 5.35e-07.

What about the solubility (mole fraction) (in water, 303.15 K) of the same molecule?
Its solubility (mole fraction) is 6.39e-07.

What about the solubility (mole fraction) (in water, 308.15 K) of the same molecule?
Its solubility (mole fraction) is 6.98e-07.

What about the solubility (mole fraction) (in water, 313.15 K) of the same molecule?
Its solubility (mole fraction) is 7.87e-07.

What about the solubility (mole fraction) (in water, 318.15 K) of the same molecule?
Its solubility (mole fraction) is 8.69e-07.

What about the solubility (mole fraction) (in water, 323.15 K) of the same molecule?
Its solubility (mole fraction) is 1.02e-06.

And the solubility (mole fraction) (in water, 328.15 K)?
Its solubility (mole fraction) is 1.11e-06.

What about the solubility (mole fraction) (in water, 333.15 K) of the same molecule?
The solubility (mole fraction) was 1.24e-06.

What about the solubility (mole fraction) (in water, 338.15 K) of the same molecule?
The solubility (mole fraction) was 1.48e-06.

What about the solubility (mole fraction) (in water, 343.15 K) of the same molecule?
Its solubility (mole fraction) is 1.64e-06.
